Values quoted from earlier work in PubChem BioAssay AID1259409 (Chemical Carcinogenesis Research Information System (CCRIS), 2018).

Test system: rodent chemically induced tumor inhibition, incidence and multiplicity
Assay: CCRIS tumor inhibitor studies

Q: What does the source list for `COc1cc(/C=C/C(=O)CC(=O)/C=C/c2ccc(O)c(OC)c2)ccc1O`?
A: tumour outcome (control, treated, inhibition, significance) (Carcinogen: 1,2-DIMETHYLHYDRAZINE [540-73-8], Species: RAT, Strain/Sex: WISTAR, Target Tissue: Type of Lesion: COLON, Dose [Carcinogen]: 20 MG/KG): 81.3%, 61%, 25%, p<0.05; tumour outcome (control, treated, inhibition, significance) (Carcinogen: 2,2'-DIHYDROXY-DI-N-PROPYLNITROSAMINE, 53609-64-6, N-ETHYL-N-HYDROXYETHYLNITROSAMINE, 13147-25-6, 3,2'-DIMETHYL-1,4-, Carcinogen: 2,2'-DIHYDROXY-DI-N-PROPYLNITROSAMINE, 53609-64-6, N-ETHYL-N-HYDROXYETHYLNITROSAMINE, 13147-25-6, 3,2'-DIMETHYL-1,4-, Dose [Inhibitor]: 0, 1% IN DIET FOR 4 WK BEGINNING 1 D PRIOR TO FIRST CARCINOGEN DOSE (STUDY DURATION: 36 WK), Route [Inhibitor]: ORAL, Species: RAT, Strain/Sex: F344/MALE, Target Tissue: Type of Lesion: KIDNEY: ADENOMA, Dose [Carcinogen]: 1000 MG/KG BW DHPN TWICE, 1500 MG/KG EHEN TWICE, 75 MG/KG BW DMAB 3 TIMES, SEQUENTIALLY OVER 3 WK, Promoter: NONE USED): 6/10 (60%), 6/13 (46%), 23%, not significant; tumour outcome (control, treated, inhibition, significance) (Carcinogen: 2,2'-DIHYDROXY-DI-N-PROPYLNITROSAMINE, 53609-64-6, N-ETHYL-N-HYDROXYETHYLNITROSAMINE, 13147-25-6, 3,2'-DIMETHYL-1,4-, Carcinogen: 2,2'-DIHYDROXY-DI-N-PROPYLNITROSAMINE, 53609-64-6, N-ETHYL-N-HYDROXYETHYLNITROSAMINE, 13147-25-6, 3,2'-DIMETHYL-1,4-, Dose [Inhibitor]: 0, 1% IN DIET FOR 4 WK BEGINNING 1 D PRIOR TO FIRST CARCINOGEN DOSE (STUDY DURATION: 36 WK), Route [Inhibitor]: ORAL, Species: RAT, Strain/Sex: F344/MALE, Target Tissue: Type of Lesion: LUNG: ADENOMA, Dose [Carcinogen]: 1000 MG/KG BW DHPN TWICE, 1500 MG/KG EHEN TWICE, 75 MG/KG BW DMAB 3 TIMES, SEQUENTIALLY OVER 3 WK, Promoter: NONE USED): 5/10 (50%), 10/13 (77%), -54%, not significant; tumour outcome (control, treated, inhibition, significance) (Carcinogen: 4-NITROQUINOLINE-1-OXIDE, 56-57-5, Dose [Inhibitor]: 0, 500 PPM IN DIET FOR 10 WK BEGINNING 1 WK PRIOR TO CARCINOGEN TREATMENT (STUDY DURATION: 32 WK), Route [Inhibitor]: ORAL, Species: RAT, Strain/Sex: F344/MALE, Target Tissue: Type of Lesion: TONGUE: CARCINOMA, Dose [Carcinogen]: 20 PPM IN DRINKING WATER FOR 8 WK, Promoter: NONE USED): 13/24 (54%), 1/19 (5%), 91%, p<0.05; tumour outcome (control, treated, inhibition, significance) (Carcinogen: 4-NITROQUINOLINE-1-OXIDE, 56-57-5, Dose [Inhibitor]: 0, 500 PPM IN DIET FOR 10 WK BEGINNING 1 WK PRIOR TO CARCINOGEN TREATMENT (STUDY DURATION: 32 WK), Route [Inhibitor]: ORAL, Species: RAT, Strain/Sex: F344/MALE, Target Tissue: Type of Lesion: TONGUE: PAPILLOMA, Dose [Carcinogen]: 20 PPM IN DRINKING WATER FOR 8 WK, Promoter: NONE USED): 4/24 (17%), 0/19 (0%), 100%, not significant; tumour outcome (control, treated, inhibition, significance) (Carcinogen: 4-NITROQUINOLINE-1-OXIDE, 56-57-5, Dose [Inhibitor]: 0, 500 PPM IN DIET FOR 22 WK BEGINNING 1 WK POST CARCINOGEN TREATMENT (STUDY DURATION: 32 WK), Route [Inhibitor]: ORAL, Species: RAT, Strain/Sex: F344/MALE, Target Tissue: Type of Lesion: TONGUE: CARCINOMA, Dose [Carcinogen]: 20 PPM IN DRINKING WATER FOR 8 WK, Promoter: NONE USED): 13/24 (54%), 3/20 (15%), 72%, p<0.05; tumour outcome (control, treated, inhibition, significance) (Carcinogen: 4-NITROQUINOLINE-1-OXIDE, 56-57-5, Dose [Inhibitor]: 0, 500 PPM IN DIET FOR 22 WK BEGINNING 1 WK POST CARCINOGEN TREATMENT (STUDY DURATION: 32 WK), Route [Inhibitor]: ORAL, Species: RAT, Strain/Sex: F344/MALE, Target Tissue: Type of Lesion: TONGUE: PAPILLOMA, Dose [Carcinogen]: 20 PPM IN DRINKING WATER FOR 8 WK, Promoter: NONE USED): 4/24 (17%), 2/20 (10%), 41%, not significant; tumour outcome (control, treated, inhibition, significance) (Carcinogen: 7,12-DIMETHYLBENZ[A]ANTHRACENE, 57-97-6, Dose [Inhibitor]: 0: 5% IN DIET FOR DURATION OF STUDY BEGINNING 2 WK PRIOR TO CARCINOGEN DOSE (STUDY DURATION: 6 MO), Route [Inhibitor]: ORAL, Species: RAT, Strain/Sex: WISTAR/FEMALE, Target Tissue: Type of Lesion: MAMMARY GLAND: TUMOR, Dose [Carcinogen]: 10 MG IN PEANUT OIL INJECTED INTO SUBCUTANEOUS POUCH CREATED IN THE 5TH AND 6TH MAMMARY GLAND REGION, Promoter: NONE USED): 20/20 (100%), 5/20 (25%), 75%, p<0.001; tumour outcome (control, treated, inhibition, significance) (Carcinogen: 7,12-DIMETHYLBENZ[A]ANTHRACENE, 57-97-6, Dose [Inhibitor]: 0, 2% IN DIET FOR 22 WK BEGINNING 2 WK PRIOR TO CARCINOGEN DOSE (STUDY DURATION: 22 WK), Route [Inhibitor]: ORAL, Species: MOUSE, Strain/Sex: SENCAR/FEMALE, Target Tissue: Type of Lesion: LYMPHATIC SYSTEM:LYMPHOMA OR LEUKEMIA, Dose [Carcinogen]: 1 MG IN 0.1 ML CORN OIL 1/WK FOR 5 WK, Promoter: NONE USED): 45%, 21%, 53%, p<0.05; tumour outcome (control, treated, inhibition, significance) (Carcinogen: 7,12-DIMETHYLBENZ[A]ANTHRACENE, 57-97-6, Dose [Inhibitor]: 0, 2% IN DIET FOR 22 WK BEGINNING 2 WK PRIOR TO CARCINOGEN DOSE (STUDY DURATION: 22 WK), Route [Inhibitor]: ORAL, Species: MOUSE, Strain/Sex: SENCAR/FEMALE, Target Tissue: Type of Lesion: MAMMARY GLAND: TUMOR, Dose [Carcinogen]: 1 MG IN 0.1 ML CORN OIL 1/WK FOR 5 WK, Promoter: NONE USED): 68%, 78%, -15%, not significant; tumour outcome (control, treated, inhibition, significance) (Carcinogen: 7,12-DIMETHYLBENZ[A]ANTHRACENE, 57-97-6, Dose [Inhibitor]: 0, 2% IN DIET FOR 22 WK BEGINNING 2 WK PRIOR TO CARCINOGEN DOSE (STUDY DURATION: 22 WK), Route [Inhibitor]: ORAL, Species: MOUSE, Strain/Sex: SENCAR/FEMALE, Target Tissue: Type of Lesion: OVARY:TUMOR, Dose [Carcinogen]: 1 MG IN 0.1 ML CORN OIL 1/WK FOR 5 WK, Promoter: NONE USED): 20%, 8%, 60%, p<0.1; tumour outcome (control, treated, inhibition, significance) (Carcinogen: 7,12-DIMETHYLBENZ[A]ANTHRACENE, 57-97-6, Dose [Inhibitor]: 0, 3 UMOL IN ACETONE 1/WK FOR 10 WK APPLIED 5 MIN PRIOR TO EACH CARCINOGEN DOSE (STUDY DURATION: 26 WK), Route [Inhibitor]: DERMAL, Species: MOUSE, Strain/Sex: CD-1/FEMALE, Target Tissue: Type of Lesion: SKIN: TUMORS, Dose [Carcinogen]: 2 NMOL 1/WK FOR 10 WK, Promoter: 12-O-TETRADECANOYLPHORBOL-13-ACETATE, 16561-29-8): 100%, 98%, 2%, not calculated; tumour outcome (control, treated, inhibition, significance) (Carcinogen: 7,12-DIMETHYLBENZ[A]ANTHRACENE, 57-97-6, Dose [Inhibitor]: 0, 10 UMOL IN ACETONE 1/WK FOR 10 WK APPLIED 5 MIN PRIOR TO EACH CARCINOGEN DOSE (STUDY DURATION: 26 WK), Route [Inhibitor]: DERMAL, Species: MOUSE, Strain/Sex: CD-1/FEMALE, Target Tissue: Type of Lesion: SKIN: TUMORS, Dose [Carcinogen]: 2 NMOL 1/WK FOR 10 WK, Promoter: 12-O-TETRADECANOYLPHORBOL-13-ACETATE, 16561-29-8): 100%, 98%, 2%, not calculated; tumour outcome (control, treated, inhibition, significance) (Carcinogen: 7,12-DIMETHYLBENZ[A]ANTHRACENE, 57-97-6, Dose [Inhibitor]: 10 UMOL IN 200 µL ACETONE 2/WK FOR 19 WK BEGINNING 1 WK POST CARCINOGEN DOSE (STUDY DURATION: 20 WK), Route [Inhibitor]: DERMAL, Species: MOUSE, Strain/Sex: CD-1/FEMALE, Target Tissue: Type of Lesion: SKIN: PAPILLOMA, Dose [Carcinogen]: 200 NMOL IN 200 µL ACETONE ONCE, Promoter: 12-O-TETRADECANOYLPHORBOL-13-ACETATE, 16561-29-8): 68%, 0%, 100%, not calculated
